Measured values reported in patent US20110045100A1, “Antimalarial Quinolines and Methods of Use Thereof” (GEORGETOWN UNIVERSITY, priority 2008, published 2011).

Key:
[1] = tested on: Dd2 (chloroquine resistant strain of P. falciparum); experiment: SYBR Green I antiplasmodial assay, strain Dd2; type: cell-based, Plasmodium falciparum; details: for activity against the CQ resistant strain Dd2 in comparison with CQ: compared with CQ
Text: (§1) Bennett T. N.; Paguio, M.; Gligorijevic, B.; Seudieu, C.; Kosar, A. D.; Davidson, E.; Roepe, P. D. Novel, rapid, and inexpensive cell-based quantification of antimalarial drug efficacy. Antimicrob. Agents Chemother. 2004, 48, 1807-1810; Smilkstein, M.; Sriwilaijaroen, N.; Kelly, J. X.; Wilairat, P.; Riscoe, M. Simple and inexpensive fluorescence-based technique for high-throughput antimalarial drug screening. Antimicrob. Agents Chemother. 2004, 48, 1803-1806; and Johnson, J. D.; Dennull, R. A.; Gerena, L.; Lopez-Sanchez, M.; Roncal, N. E.; Waters, N.C. Assessment and continued validation of the malaria SYBR green I-based fluorescence assay for use in malaria drug screening. Antimicrob. Agents Chemother. 2007, 51, 1926-1933. […] Drake, N. L.; Creech, H. J.; Garman, J. A.; Haywood, S. T.; Peck, R. M.; van Hook, J. O.; Walton, E. Synthetic antimalrials. The preparation of certain 4-aminoquinolines. J. Am. Chem. Soc. […] Trans. R. Soc. Trop. Med. Hyg. […] J. Parasitol. 1983, 69, 97-105. The selectivity index provides a quantitative measure of the antimalarial activity against CQR strains relative to that against sensitive strains and thus indicates promising drug discovery leads. […] This can be combined with the introduction of a third basic amino function which should further favor accumulation of the drug within the acidic food vacuole of the parasite.
The antiplasmodial activity of these compounds was measured versus a CQS (HB3) and a CQR (Dd2) strain using a standardized, inexpensive assay based on SYBR Green I intercalation. Bennett T. N.; Paguio, M.; Gligorijevic, B.; Seudieu, C.; Kosar, A. D.; Davidson, E.; Roepe, P. D. Antimicrob. Agents Chemother. 2004, 48, 1807-1810; Smilkstein, M.; Sriwilaijaroen, N.; Kelly, J. X.; Wilairat, P.; Riscoe, M. Antimicrob. Agents Chemother. 2004, 48, 1803-1806; and Johnson, J. D.; Dennull, R. A.; Gerena, L.; Lopez-Sanchez, M.; Roncal, N. E.; Waters, N.C. Antimicrob. Agents Chemother. 2007, 51, 1926-1933. […] De, D.; Krogstad, F. M.; Cogswell, F. B.; Krogstad, D. J. Am. J. Trop. Med. Hyg. 1996, 55, 579-583. […] The basic tertiary amino function in the side chain is commonly believed to be crucial for the accumulation of the drug within the acidic food DV.
(§2) Drug activities were assessed and IC50 were quantified essentially as described previously. Delarue, S.; Girault, S.; Maes, L.; Debreu-Fontaine, M. A.; Labaeid, M.; Grellier, P.; Sergheraert, C. Synthesis and in vitro and in vivo antimalarial activity of new 4-anilinoquinolines. J. Med. Chem. 2001, 44, 2827-2833; and O'Neill, P. M.; Willock, D. J.; Hawley, S. R.; Bray, P. G.; Storr, R. C.; Ward, S. A.; Park, B. K. Synthesis, antimalarial activity, and molecular modeling of tebuquine analogues. J. Med. Chem. 1997, 40, 437-448. The aminoquinolines were diluted using complete media under sterile conditions and plated in a 96 well plate format. Sorbitol synchronized cultures were utilized with >95% of the parasites at the ring stage. Cultures were diluted to give a working stock of 0.5% parasitemia and 2% hematocrit (final hematocrit 1% & 0.5% Parasitemia). The plates were incubated for 72 h at 37° C. After 72 h, 50 μL of 10×SYBR green I dye was added to each well, and the plate was incubated for 1 h at 37° C. Fluorescence was measured at 530 nm (490 nm excitation) using a spectra geminiEM plate reader. Data analysis was performed using sigma plot 9.0 software after downloading data in Excel format.

[2] = tested on: FCB (CQR strain of P. falciparum); experiment: SYBR Green I antiplasmodial assay, strain FCB; type: cell-based, Plasmodium falciparum; details: compared with CQ
Text: as §1, §2

[3] = tested on: CQS and CQR strains of P. falciparum; details: cited from earlier work; for antimalarial activity against certain CQS and CQR strains relative to chloroquine, reported by Jensen: diastereomeric mixtures

| SMILES | activity against the CQ resistant strain Dd2 in comparison with CQ [1] | potency against FCB in comparison with CQ [2] | also measured |
| --- | --- | --- | --- |
| CCN(CC)CCCN(CCCN)c1ccnc2cc(Cl)ccc12 [4b, N-(7-Chloro-4-quinolyl)-N-(3-diethylaminopropyl)-1,3-diaminopropane] | clearly superior activity | significantly more potent |  |
| CCN(CC)CCCN(CC)CCNc1ccnc2cc(Cl)ccc12 [5a, N-(7-Chloro-4-quinolyl)-N-ethyl-N-(3-diethylaminopropyl)-1,2-diaminoethane] | clearly superior activity | significantly more potent |  |
| CCN(CC)CCCN(CC)CCCNc1ccnc2cc(Cl)ccc12 [5b, N-(7-Chloro-4-quinolyl)-N-ethyl-N-(3-diethylaminopropyl)-1,3-diaminopropane] | clearly superior activity | significantly more potent |  |
| CCN(CC)CCCN(CC)CCCCCNc1ccnc2cc(Cl)ccc12 [5d, N-(7-Chloro-4-quinolyl)-N-ethyl-N-(3-diethylaminopropyl)-1,5-diaminopentane] | clearly superior activity | significantly more potent |  |
| CCNC1CCCC(N(CC)c2ccnc3cc(Cl)ccc23)C1 (centres unmarked) [16a, N-(7-Chloro-4-quinolyl)-N,N′-diethyl-1,3-diaminocyclohexane] | clearly superior activity |  | antimalarial activity against certain CQS and CQR strains relative to chloroquine, reported by Jensen [3]: higher antimalarial activity |
| CC(C)NC1CCCC(Nc2ccnc3cc(Cl)ccc23)C1 (centres unmarked) [16b, N-(7-Chloro-4-quinolyl)-N′-isopropyl-1,3-diaminocyclohexane] | clearly superior activity |  |  |
| CCNC1CCC(N(CC)c2ccnc3cc(Cl)ccc23)CC1 (centres unmarked) [17a, N-(7-Chloro-4-quinolyl)-N,N′-diethyl-1,4-diaminocyclohexane] | clearly superior activity | significantly more potent | antimalarial activity against certain CQS and CQR strains relative to chloroquine, reported by Jensen [3]: higher antimalarial activity |
| CC(C)NC1CCC(Nc2ccnc3cc(Cl)ccc23)CC1 (centres unmarked) [17b, N-(7-Chloro-4-quinolyl)-N′-isopropyl-1,4-diaminocyclohexane] | clearly superior activity | significantly more potent |  |
| CCN(CCNc1ccnc2cc(Cl)ccc12)CCNS(=O)(=O)c1cccc2cccnc12 [compound 33] |  |  | activity against Dd2 in words [1]: relatively high activity |
| NCCCN(C(=O)c1ccc(F)cc1NCc1ccccc1)c1ccnc2cc(Cl)ccc12 [compound 53, N-(7-Chloro-4-quinolyl)-N-(2-benzylamino-4-fluorobenzoyl)-1,3-diaminopropane] |  |  | activity against Dd2 compared with HB3 [1]: significantly more active against Dd2 than HB3 |
| CCNCCNc1ccnc2cc(Cl)ccc12 [compound 81, N-(7-Chloro-4-quinolyl)-N′-ethyl-1,2-diaminoethane] |  |  | IC50 vs. CQR strains, earlier reports [3]: high IC50 |
| CCNCCCNc1ccnc2cc(Cl)ccc12 [compound 82, N-(7-Chloro-4-quinolyl)-N′-ethyl-1,3-diaminopropane] |  |  | IC50 vs. CQR strains, earlier reports [3]: high IC50 |
| CCN(CC)CCNc1ccnc2cc(Cl)ccc12 [compound 86, N-(7-Chloro-4-quinolyl)-N′,N′-diethyl-1,2-diaminoethane] |  |  | IC50 vs. CQR strains, earlier reports [3]: substantially lower IC50 |
| CCN(CC)CCCNc1ccnc2cc(Cl)ccc12 [compound 87, N-(7-Chloro-4-quinolyl)-N′,N′-diethyl-1,3-diaminopropane] |  |  | IC50 vs. CQR strains, earlier reports [3]: substantially lower IC50 |
| CCNCCCC(C)Nc1ccnc2cc(Cl)ccc12 (centres unmarked) [desethyl CQ, reference compound] |  |  | activity vs. some CQR strains relative to CQ, previous studies ([3]; some CQR strains): lower activity |
